Source: publication PMC12126490, “The HP1 box of KAP1 organizes HP1α for silencing of endogenous retroviral elements in embryonic stem cells” (Nature Communications, 2025)

What was measured:
[1] = test system: W174A mutant of HP1αCSD; test: 1H,15N HSQC NMR titration of W174A HP1αCSD with KAP1Hbox; assay type: binding, human; conditions: 15N-labeled W174A HP1αCSD, 20 mM Tris pH 6.8, 150 mM NaCl, 2 mM DTT, 298 K
Procedure: (§1) Human full-length HP1α and HP1αCSD (aa 109–185 of HP1α) were cloned into a pGEX4T-1 expression vector and expressed in E. coli BL21 Rosetta (DE3) pLysS cells grown in Luria Broth or M9 minimal media supplemented with ^15NH4Cl (Sigma-Aldrich). Following induction with 0.5 mM isopropyl β-D-1-thiogalactopyranoside (IPTG) for 20 h at 16 °C, cells were harvested by centrifugation and lysed by sonication. GST-tag fusion proteins were purified on glutathione agarose 4B beads (Thermo Fisher Sci) in 50 mM Tris-HCl (pH 7.5) buffer, supplemented with 500 mM NaCl and 5 mM β-mercaptoethanol. The GST tag was cleaved with TEV (Tobacco Etch Virus) protease overnight at 4 °C. Proteins were further purified by size exclusion chromatography (SEC) and concentrated in Millipore concentrators. Mutants were generated by site-directed mutagenesis using the Stratagene QuikChange mutagenesis protocol and were purified as wild-type proteins.
(§2) NMR data were processed and analyzed with NMRPipe[54] and NMRDraw as described. Normalized chemical shift perturbations shown in Fig. 3b were calculated using the equation:2 Δδ=ΔδH^2+ΔδN/5^2 where Δδ is the change in chemical shift in parts per million (ppm).

[2] = test system: L139E/L150E FL HP1α; test: mass photometry with KAP1Hbox (Fig. 5j); parameters: species or system human; conditions: 2:1 molar ratio HP1α:KAP1Hbox
Procedure: as §1
(§3) Mass photometry (MP) assays shown in Fig. 5c, j, were performed on a Refeyn Two^MP mass photometer (Refeyn Ltd, Oxford, UK) to determine oligomeric states of FL and L139E/L150E HP1α. Each sample was loaded into the sample wells of the silicon cassettes assembled onto MassGlass UC coverslips (Refeyn, Ltd.). Samples for measurements were prepared by rapid in-drop dilution and measurements were performed at room temperature in buffer (50 mM Tris pH 7.5, 150 mM NaCl, 5 mM DTT). […]

[3] = test system: FL HP1α; test: mass photometry with KAP1Hbox (Fig. 5j); parameters: species or system human; conditions: 2:1 molar ratio HP1α:KAP1Hbox
Procedure: as §1, §3

[4] = test system: 147 bp Widom 601 DNA (DNA147); test: EMSA; assay type: binding; conditions: for DNA binding of protein or peptide itself: 0.25 pmol/lane DNA147, 25 mM Tris-HCl pH 7.5, 150 mM NaCl, peptides without HP1α
Procedure: as §1
The protein was expressed in E. coli BL21(DE3) RIL competent cells in Luria Broth, induced with 0.5 mM IPTG and grown for 20 h at 16 °C. The cells were harvested by centrifugation and lysed by sonication. […] The protein was eluted in 50 mM Tris-HCl (pH 7.5) buffer supplemented with 500 mM NaCl, 500 mM imidazole and 5 mM DTT. The protein was further purified by size exclusion chromatography using a HiLoad16/600 Superdex 75 column (Cytiva) and buffer containing 50 mM Tris-HCl (pH 7.5), 500 mM NaCl and 5 mM DTT. The eluted protein fractions were analyzed by SDS-PAGE. The fractions were pooled, concentrated and exchanged with buffer containing […] pH 7.5, 150 mM NaCl and 2.5 mM DTT. The His-SUMO tag was cleaved overnight at 4 °C with Ulp1 enzyme and the tag was removed using Ni-NTA beads. The purified KAP1Hbox’ was concentrated in Millipore concentrators.
The buffer containing 25 mM Tris-HCl pH 7.5, 150 mM NaCl and 2.5 mM DTT was used to make up the final reaction volume of 10 µL. The samples were incubated for 1 h on ice and then loaded on a 8% native PAGE gel and run for 2 h at 80 V in 0.5× Tris-borate-EDTA (TBE) on ice. The gels were stained with SYBR Gold (Thermo Fisher Sci) and visualized by Blue LED (UltraThin LED Illuminator-GelCompany).
Tryptophan fluorescence data are presented as average of three independent measurements ±SD. […] EMSA experiments in Fig. 4 and Supplementary Figs. 6 and 7 were performed at least twice.

[5] = test system: I165E mutant of HP1αCSD; test: 1H,15N HSQC NMR titration of I165E HP1αCSD with KAP1Hbox; assay type: binding, human; conditions: 15N-labeled I165E HP1αCSD, 20 mM Tris pH 6.8, 150 mM NaCl, 2 mM DTT, 298 K
Procedure: as §1, §2

[6] = test system: L139E/L150E HP1αCSD; test: 1H,15N HSQC NMR titration of L139E/L150E HP1αCSD with KAP1Hbox; assay type: binding, human; conditions: 15N-labeled L139E/L150E HP1αCSD, 20 mM Tris pH 6.8, 150 mM NaCl, 2 mM DTT, 298 K
Procedure: as §1, §2

[7] = test system: HP1αCSD’; test: NMR chemical shift perturbation of 15N-labeled HP1αCSD’; assay type: binding, human; conditions: 50 μM 15N-labeled HP1αCSD’ with 1 mM unlabeled HP1αCSD’ or 900 μM unlabeled HP1αCD; 1H,15N HSQC
Procedure: NMR experiments for amide chemical shift assignments were collected at 310 K on an Avance Neo Bruker 800 MHz spectrometer equipped with a TXO cryo-probe optimized for ^15N detection. The HP1αCSD’ construct (aa 112–176 of HP1α) and the CD of HP1α (aa 18–75 of HP1α, HP1αCD) were purified as described. Experiments were performed in buffer containing 20 mM HEPES (90% H2O/10% D2O), pH 7.2, 75 mM KCl, 1 mM TCEP, and 0.01% NaN3. Chemical shift assignments were performed on a 400 μM uniformly ^13C/^15N-labeled HP1αCSD’ sample using standard 2D ^1H,^15N HSQC, 3D HNCACB and 3D CBCA(CO)NH experiments[56]–[58]. Data were processed with NMRPipe[54] and analyzed in NMRFAM-SPARKY[59] (Sparky). […]
Fig. 10, ^1H,^15N HSQC spectra were recorded on 50 μM ^15N-labeled HP1αCSD’ samples with and without 1 mM unlabeled HP1αCSD’ or with and without 900 μM unlabeled HP1αCD. The resonance perturbation analysis was performed using the […][60],[61] as follows:3 Δδcombined=∣ΔδH∣+α∣ΔδN∣ The ∆δcombined is the sum of the absolute chemical shift change. ∆δH is the change in the ^1H chemical shift. ∆δN is the change in the ^15N chemical shift. α (0.105) is the scaling factor calculated by using the ratio between the backbone ^1H chemical shift range and ^15N chemical shift range from the ^1H,^15N HSQC spectrum.

[8] = test system: endogenous KAP1 from HCT116 cells; test: pull-down with Strep-tagged HP1α, Western blot; assay type: binding; conditions: Strep-tagged full-length HP1α, 3 biological replicates
Procedure: For all AP experiments, HCT116 cells were seeded in 10 cm plates (~4 million cells per dish) and transfected with Strep- and Flag-tagged plasmids one-day after seeding cells. Two days post-transfection, cells were collected in PBS and lysed with passive lysis buffer (PLB: 50 mM Tris-HCl pH 7.5, 150 mM NaCl, 1 mM DTT, 1.0% NP-40, 1.5 mM MgCl2, 5% v/v glycerol, and 1X complete, Mini EDTA-free, EASYpack Protease Inhibitor [Roche, Cat# 4693159001]) by resuspending cells in PLB, vortexing briefly, nutating for 15 min at 4 °C, and centrifuging the lysate (10,000 × g, 10 min, 4 °C). Strep-Tactin superflow resin (IBA Life Sciences, Cat# 2-1208-010), was equilibrated by centrifuging beads (2000 RPM, 2 min, 4 °C), removing storage buffer, and washing three times with PLB with nutation for 5 min at 4 °C. Beads were volumed back to their original volume, and 40 µL beads were used per AP and bound for 2 h. Beads were then washed with AP Wash Buffer (50 mM Tris-HCl pH 7.5, 250 mM NaCl, 1 mM DTT, 0.2% NP-40, 1.5 mM MgCl2, and 5% v/v glycerol), and eluted with Strep-tag Elution Buffer containing D-Desthiobiotin (IBA Life Sciences, Cat# 2-1000-025).
All western blots were run on 10-12% SDS-PAGE gels and transferred on nitrocellulose membranes (Bio-Rad, Cat# 1620115) using the Bio-Rad Trans-Blot Turbo Transfer System, blocked for 1 h in 5% Milk (or BSA) with Tris-buffered saline-Tween-20 (TBST), probed with primary antibody in 5% Milk (or BSA) with TBST. Blots were exposed using either Clarity Western ECL (Bio-Rad, Cat# 1705060) or utilizing the starbright secondary channel. KAP1 and CBX5/HP1a mutants for Western blot assays were generated using QuikChange II XL Site-Directed Mutagenesis kit (Agilent, Cat# 200522) per manufacturer’s instructions. PCR amplified DNAs were transformed into E. coli BME treated XL-10 Gold provided in the kit and positive clones validated by Sanger Sequencing. […]
Tryptophan fluorescence data are presented as average of three independent measurements ±SD. […]

[9] = test system: I165E HP1αCSD; test: NMR titration of 15N-labeled I165E HP1αCSD with unlabeled HP1αCSD; assay type: binding, human
Procedure: as §1, §2

[10] = molecular target: T1, HP1αCSD (Homo sapiens, UniProt P45973); test: 1H,15N HSQC NMR titration of 15N-labeled HP1αCSD with KAP1Hbox; assay type: binding; conditions: 0.1–0.2 mM 15N-labeled protein, 20 mM Tris pH 6.8, 150 mM NaCl, 2 mM DTT, 10% D2O, 298 K
T1 construct: HP1αCSD (aa 109–185 of HP1α); GST (N, cleaved yes); made in house; host or cells: E. coli BL21 Rosetta (DE3) pLysS
T1 sequence (P45973 109-185): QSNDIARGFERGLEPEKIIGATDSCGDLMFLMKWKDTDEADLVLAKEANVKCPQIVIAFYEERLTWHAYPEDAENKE
Source text: NMR data were processed and analyzed with NMRPipe[54] and NMRDraw as described[55].

CC(C)C[C@H](NC(=O)[C@H](CCCNC(=N)N)NC(=O)[C@H](CCC(=O)O)NC(=O)[C@H](CC(C)C)NC(=O)[C@H](CO)NC(=O)[C@@H](NC(=O)[C@H](CCCNC(=N)N)NC(=O)[C@@H]1CCCN1C(=O)[C@@H](NC(=O)[C@H](CCCCN)NC(=O)[C@@H](N)CCCNC(=N)N)C(C)C)C(C)C)C(=O)O [KAP1Hbox]
binding by CSPs in HSQC [1]: no CSP were observed
KAP1Hbox-promoted oligomerization of L139E/L150E FL HP1α [2]: markedly decreased
effect on oligomerization of WT FL HP1α [3]: further increased oligomerization of WT FL HP1α
DNA binding of protein or peptide itself ([4]; 2.5 mM DTT, 1 h on ice): did not appreciably bind DNA
effect of peptide on binding of HP1α to DNA147 ([4]; FL HP1α, tenfold molar excess of peptide, 25 mM Tris-HCl pH 7.5, 150 mM NaCl, 2.5 mM DTT, 1 h on ice, 8% native PAGE): augmented binding of HP1α to DNA
binding by CSPs in HSQC [5]: disrupted
binding by CSPs in HSQC [6]: does not disrupt the CSD-KAP1Hbox complex formation

CD domain: CD of HP1α (aa 18–75 of HP1α)
resonance perturbations in HP1αCSD’ [7]: does not induce such changes

FL HP1α: Human full-length HP1α
DNA binding of protein or peptide itself ([4]; 2.5 mM DTT, 1 h on ice): forms a complex with DNA147
pull-down of endogenous KAP1 [8]: immunoprecipitated

HP1αCSD: aa 109–185 of HP1α, chromoshadow domain
CSPs in I165E HP1αCSD [9]: led to CSPs
resonance perturbations in HP1αCSD’ [7]: resonance perturbations observed
shift of DNA band by HP1αCSD in presence or absence of KAP1Hbox ([4]; isolated HP1αCSD, with and without KAP1Hbox (1:10)): unable to shift the DNA band

I165E HP1α: I165E mutant of full-length HP1α (dimerization interface), Strep-tagged
pull-down of endogenous KAP1 [8]: not

V488E mutant of KAP1Hbox: V488E mutant of KAP1Hbox peptide (RKVPRESLERL)
binding by CSPs in HSQC [10]: no CSP were observed

W174A HP1α: W174A mutant of full-length HP1α, Strep-tagged
pull-down of endogenous KAP1 [8]: not
